Patent publication EP3818828A1 (priority 2019, dated 2021)
In brackets after ≈: the same amount, converted by molar mass. Several values for one entry are separate records, joined by “and”; a condition that tells them apart may be missing. Equal entries are not always repeated. Where two headings read alike, the source gives them in different places.

Legend:
[1] = tested on: zucchini powdery mildew; experiment: Field efficiency test, zucchini powdery mildew; type: in vivo; conditions: 0.50 mg/mL (active ingredients)
Text: The formulation of emulsifiable concentrate is the same as that in Embodiment 3.
The variety of zucchini was Zaoqing F1 (manufactured by Wuwei Dadi Seed Industry Co., Ltd.), which was sown on July 29th, 2016. The first application was started on August 26th, at the early onset of powdery mildew (the average disease index is 10.07). The instrument for application was Agrolex HD 400 Model hand operating knapsack sprayer, which employed a cone nozzle. Each agent was formulated into the desired concentrations according to the usage amount of the control clear water. Both sides of the leaves were sprayed evenly so that the leaves were wetted by the liquor without loss. 10% of 3-(3',4'-methylenedioxy phenyl)-N-n-propyl acrylamide EC and 14% of 3-(3',4'-methylenedioxy phenyl)-piperidine acrylate EC were both diluted at a concentration of 0.50 mg/mL (active ingredients); the control agent, 430 g/L of tebuconazole SC (manufactured by Yantai Keda Chemical Co., Ltd.) was also diluted at a concentration of 0.50 mg/mL (active ingredients); additionally clear water was used as the control. Thereafter, applications were conducted every 7 days consecutively for 4 times. 10 days after the last application, the number of sick leaves at each grade of powdery mildew was investigated for the whole plant following the grading standard of 9 grades, to calculate the disease index and the control effect.

[2] = tested on: Phytophthora infestans; type: cell-based; conditions: Phytophthora infestas; 1 mg/mL
[3] = tested on: E. polygoni; experiment: In-vivo greenhouse control of marrow bean powdery mildew
Protocol: (§1) 3.88 g of 3-(3',4'-methylenedioxy phenyl)-N-n-propyl acrylamide was weighed and dissolved in 25 g of absolute ethyl alcohol, then 6 g of emulsifier 0203B was added, and mixed uniformly with stirring to get 10% of 3-(3',4'-methylenedioxy phenyl)-N-n-propyl acrylamide EC.
(§2) 5.61 g of 3-(3',4'-methylenedioxy phenyl)-piperidine acrylate was weighed and dissolved in 25 g of absolute ethyl alcohol, then 6 g of emulsifier 0203B was added, and mixed uniformly with stirring to get 14% of 3-(3',4'-methylenedioxy phenyl)-piperidine acrylate EC.
Marrow bean (Variety: Thailand Jiadouwang) was cultured in pots in a greenhouse, and inoculated with E. polygoni at the stage of 4 leaves. The first application was started at the early onset (onset at the first true leaf: first appearance of spots), comprising 10% of 3-(3',4'-methylenedioxy phenyl)-N-n-propyl acrylamide EC and 14% of 3-(3',4'-methylenedioxy phenyl)-piperidine acrylate EC, which were both diluted at three concentrations of 0.20, 0.143, 0.10 mg/mL (active ingredients), the control agent, 12.5% of myclobutanil EC (North China pharmaceutical Group, Ainuo Co. Ltd.), was also diluted at three concentrations of 0.20, 0.143, 0.10 mg/mL (active ingredients), additionally clear water was used as the control. Both sides of the leaves were sprayed evenly with a small hand-held sprayer so that the leaves were wetted by the liquor without loss. Applications were conducted every 7 days consecutively for 4 times. 10 days after the fourth application, the number of sick leaves at each grade of powdery mildew was investigated for the whole plant following the grading standard of 9 grades, to calculate the disease index and the control effect.

[4] = tested on: Erysiphe cucurbitacearum or Sphaerotheca cucurbitae; experiment: In-vivo greenhouse control of zucchini powdery mildew
Protocol: as §1, §2
Zucchini (Variety: Wuwei Xianglin extra-early 1st generation) was cultured in pots in a greenhouse, and inoculated with Erysiphe cucurbitacearum or Sphaerotheca cucurbitae at the stage of 3 to 4 leaves. The first application was started at the early onset (onset at the first true leaf: first appearance of spots), comprising 10% of 3-(3',4'-methylenedioxy phenyl)-N-n-propyl acrylamide EC and 14% of 3-(3',4'-methylenedioxy phenyl)-piperidine acrylate EC, which were both diluted at four concentrations of 0.50, 0.333, 0.25, 0.20 mg/mL (active ingredients), additionally clear water was used as the control. Both sides of the leaves were sprayed evenly with a small hand-held sprayer so that the leaves were wetted by the liquor without loss. Applications were conducted every 7 days consecutively for 4 times. 10 days after the fourth application, the number of sick leaves at each grade of powdery mildew was investigated for the whole plant following the grading standard of 9 grades, to calculate the disease index and the control effect. The computational formula is as below: Disease index = [(Number of sick leaves at each grade×Corresponding grade value)/(Total number of investigated leaves×9)] × 100; [formula] Control effect = (Disease index of the clear water control−Treated disease index)/Disease index of the clear water control × 100. [formula]

[5] = tested on: Phytophthora infestans; experiment: microbe, parasite or virus in culture; type: cell-based; conditions: 1 mg/mL
[6] = tested on: F. graminearum; experiment: microbe, parasite or virus in culture; type: cell-based; conditions: for Average Diameter of the Colony: F. graminearum, 1 mg/mL; for inhibition at 1000 µg/mL: Fusarium graminearum, read-out: Inhibition Rate
[7] = tested on: Fusarium graminearum; experiment: microbe, parasite or virus in culture; type: cell-based; conditions: for Average Diameter of the Colony: 1 mg/mL; for inhibition at 1000 µg/mL: read-out: Inhibition Rate
[8] = tested on: Phytophthora infestans; experiment: microbe, parasite or virus in culture; type: cell-based; conditions: for EC50: median inhibition concentration
[9] = tested on: Fusarium graminearum; experiment: microbe, parasite or virus in culture; type: cell-based; conditions: for EC50: median inhibition concentration
[10] = tested on: Magnaporthe grisea; experiment: microbe, parasite or virus in culture; type: cell-based; conditions: for EC50: median inhibition concentration
[11] = 0.10 mg/mL (active ingredients)
[12] = 0.143 mg/mL (active ingredients)
[13] = 0.20 mg/mL (active ingredients)
[14] = 0.333 mg/mL (active ingredients)
[15] = 0.50 mg/mL (active ingredients), spray every 7 days, 4 times
[16] = EC50 of chlorothalonil / EC50 of agent
[17] = EC50 of procymidone / EC50 of agent

Compound	Control Effect [1] [%]	Average Diameter of the Colony [2] [cm]	Control Effect [3, 11] [%]	Control Effect [3, 12] [%]	Control Effect [3, 13] [%]	Control Effect [4, 14] [%]	Control Effect [4, 15]	Average Diameter of the Colony [5] [cm]	Average Diameter of the Colony [6] [cm]	inhibition at 1000 µg/mL [6] [%]	Average Diameter of the Colony [7] [cm]	inhibition at 1000 µg/mL [7] [%]	other results
CCCNC(=O)/C=C/c1ccc2c(c1)OCO2 [3-(3',4'-methylenedioxyphenyl)-N-n-propyl acrylamide]	60.24	2.05	84.19	92.58	93.53	77.13	91.09%	0.00	3.49	59.4	2.27	57.6	–
O=C(/C=C/c1ccc2c(c1)OCO2)N1CCCCC1 [3-(3',4'-methylenedioxyphenyl)-piperidine acrylate]	30.04	0.81	74.97	89.40	91.55	67.06	67.06% and 87.13%	0.00	0.00	100	0.53	90.1	Relative Toxicity (Compared to Chlorothalonil) [8, 16]: 1.23; Relative Toxicity (Compared to Procymidone) [8, 17]: 8.36; EC50 [8]: 90 mg/L (≈ 347 µM); EC50 ([8]; listed as 66#): 93 mg/L (≈ 359 µM); Relative Toxicity (Compared to Chlorothalonil) [9, 16]: 5.89; Relative Toxicity (Compared to Procymidone) [9, 17]: 1.80; EC50 [9]: 80 mg/L (≈ 309 µM); EC50 ([9]; listed as 66#): 79.6 mg/L (≈ 307 µM); Relative Toxicity (Compared to Chlorothalonil) [10, 16]: 2.45; Relative Toxicity (Compared to Procymidone) [10, 17]: 1.73; EC50 ([10]; Pyricularia oryzae): 180 mg/L (≈ 694 µM); EC50 ([10]; listed as 66#): 177.6 mg/L (≈ 685 µM)
